# Test results reported in PubChem BioAssay (NCI).
#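 Exposure lasted 48 hours, with cells grown in 96-well plates and compounds tested at five concentrations. TGI: concentration producing complete growth inhibition.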
# What was measured:
# Assay in all cases: inhibition of tumour cell growth, NCI panel, 48 h
# [1] = system: 786-0 renal
# [2] = system: A498 renal
# [3] = system: A549 NSCLC
# [4] = system: ACHN renal
# [5] = system: CAKI-1 renal
# [6] = system: CCRF-CEM leukemia
# [7] = system: COLO 205 colon
# [8] = system: DU-145 prostate
# [9] = system: EKVX NSCLC
# [10] = system: HCC-2998 colon
# [11] = system: HCT-116 colon
# [12] = system: HCT-15 colon
# [13] = system: HL-60(TB) leukemia
# [14] = system: HOP-62 NSCLC
# [15] = system: HOP-92 NSCLC
# [16] = system: HS 578T breast
# [17] = system: HT29 colon
# [18] = system: IGROV1 ovarian
# [19] = system: K-562 leukemia
# [20] = system: KM12 colon
# [21] = system: LOX IMVI melanoma
# [22] = system: M14 melanoma
# [23] = system: MALME-3M melanoma
# [24] = system: MCF7 breast
# [25] = system: MDA-MB-231 breast
# [26] = system: MDA-MB-435
# [27] = system: MDA-N
# [28] = system: MOLT-4 leukemia
# [29] = system: NCI-H226 lung
# [30] = system: NCI-H23 lung
# [31] = system: NCI-H460 lung
# [32] = system: NCI-H522 lung
# [33] = system: NCI/ADR-RES ovarian
# [34] = system: OVCAR-3 ovarian
# [35] = system: OVCAR-4 ovarian
# [36] = system: OVCAR-5 ovarian
# [37] = system: OVCAR-8 ovarian
# [38] = system: PC-3 prostate
# [39] = system: RPMI-8226 leukemia
# [40] = system: RXF 393 renal
# [41] = system: SF-268 CNS
# [42] = system: SF-295 CNS
# [43] = system: SF-539 CNS
# [44] = system: SK-MEL-2 melanoma
# [45] = system: SK-MEL-28 melanoma
# [46] = system: SK-MEL-5 melanoma
# [47] = system: SK-OV-3 ovarian
# [48] = system: SN12C renal
# [49] = system: SNB-19 CNS
# [50] = system: SNB-75 CNS
# [51] = system: SR leukemia
# [52] = system: SW-620 colon
# [53] = system: T-47D breast
# [54] = system: TK-10 renal
# [55] = system: U251 CNS
# [56] = system: UACC-257 melanoma
# [57] = system: UACC-62 melanoma
# [58] = system: UO-31 renal
# [59] = system: BT-549 breast
smiles,measurement,setting,value
CC(C)(C)[Si](C)(C)OCC1CCC(n2cnc3c(NC(=O)c4ccccc4)ncnc32)O1 (configuration not stated),TGI,[1],31.3 µM
same,TGI,[2],35.5 µM
same,TGI,[3],39.9 µM
same,TGI,[4],40.3 µM
same,TGI,[5],46.9 µM
same,TGI,[6],47.1 µM
same,TGI,[7],35.6 µM
same,TGI,[8],37 µM
same,TGI,[9],32.6 µM
same,TGI,[10],36.2 µM
same,TGI,[11],33.5 µM
same,TGI,[12],39.2 µM
same,TGI,[13],38.2 µM
same,TGI,[14],38 µM
same,TGI,[15],31.6 µM
same,TGI,[16],33 µM
same,TGI,[17],33.6 µM
same,TGI,[18],32.7 µM
same,TGI,[19],39.5 µM
same,TGI,[20],31.3 µM
same,TGI,[21],37.1 µM
same,TGI,[22],30.3 µM
same,TGI,[23],34.3 µM
same,TGI,[24],45.1 µM
same,TGI,[25],37.1 µM
same,TGI,[26],29.2 µM
same,TGI,[27],30.9 µM
same,TGI,[28],39.6 µM
same,TGI,[29],34.6 µM
same,TGI,[30],37.4 µM
same,TGI,[31],32 µM
same,TGI,[32],33.2 µM
same,TGI,[33],33.4 µM
same,TGI,[34],28 µM
same,TGI,[35],39.5 µM
same,TGI,[36],32.3 µM
same,TGI,[37],60.2 µM
same,TGI,[38],52.6 µM
same,TGI,[39],68.5 µM
same,TGI,[40],37.8 µM
same,TGI,[41],33.4 µM
same,TGI,[42],35.8 µM
same,TGI,[43],32.9 µM
same,TGI,[44],45.6 µM
same,TGI,[45],27.9 µM
same,TGI,[46],23.7 µM
same,TGI,[47],44.9 µM
same,TGI,[48],34 µM
same,TGI,[49],33.9 µM
same,TGI,[50],25.6 µM
same,TGI,[51],53.9 µM
same,TGI,[52],35 µM
same,TGI,[53],60.6 µM
same,TGI,[54],38.6 µM
same,TGI,[55],32.9 µM
same,TGI,[56],33.4 µM
same,TGI,[57],29.7 µM
same,TGI,[58],3.16 µM
c1ccc2c(c1)ccc1nc(-c3ccc4c(c3)OCO4)c3c(c12)CCCC3,TGI,[1],> 100 µM
same,TGI,[2],72.9 µM
same,TGI,[3],> 100 µM
same,TGI,[4],> 100 µM
same,TGI,[59],> 100 µM
same,TGI,[5],> 100 µM
same,TGI,[6],> 100 µM
same,TGI,[7],41.7 µM
same,TGI,[9],> 100 µM
same,TGI,[10],> 100 µM
same,TGI,[11],> 100 µM
same,TGI,[12],> 100 µM
same,TGI,[14],> 100 µM
same,TGI,[16],28.5 µM
same,TGI,[17],> 100 µM
same,TGI,[19],> 100 µM
same,TGI,[20],24.2 µM
same,TGI,[22],> 100 µM
same,TGI,[23],63.2 µM
same,TGI,[24],> 100 µM
same,TGI,[25],44.3 µM
same,TGI,[26],87.7 µM
same,TGI,[27],> 100 µM
same,TGI,[28],> 100 µM
same,TGI,[29],> 100 µM
same,TGI,[30],> 100 µM
same,TGI,[31],> 100 µM
same,TGI,[33],> 100 µM
same,TGI,[34],> 100 µM
same,TGI,[35],64.8 µM
same,TGI,[36],> 100 µM
same,TGI,[37],> 100 µM
same,TGI,[38],> 100 µM
same,TGI,[39],> 100 µM
same,TGI,[41],88.1 µM
same,TGI,[42],> 100 µM
same,TGI,[43],34.2 µM
same,TGI,[44],> 100 µM
same,TGI,[45],> 100 µM
same,TGI,[47],> 100 µM
same,TGI,[48],98.6 µM
same,TGI,[49],> 100 µM
same,TGI,[50],> 100 µM
same,TGI,[52],> 100 µM
same,TGI,[53],94.5 µM
same,TGI,[55],> 100 µM
same,TGI,[56],> 100 µM
same,TGI,[57],82 µM
same,TGI,[58],90.8 µM
CCOC(=O)c1cc2cc(N(C(C)=O)C(C)=O)ccc2s1,TGI,[1],> 100 µM
same,TGI,[2],35.1 µM
same,TGI,[3],> 100 µM
same,TGI,[4],62.3 µM
same,TGI,[59],91.5 µM
same,TGI,[5],> 100 µM
same,TGI,[6],> 100 µM
same,TGI,[7],> 100 µM
same,TGI,[8],> 100 µM
same,TGI,[9],55.9 µM
same,TGI,[10],> 100 µM
same,TGI,[11],> 100 µM
same,TGI,[12],> 100 µM
same,TGI,[13],39.2 µM
same,TGI,[14],> 100 µM
same,TGI,[15],> 100 µM
same,TGI,[16],37.6 µM
same,TGI,[17],67.9 µM
same,TGI,[18],> 100 µM
same,TGI,[19],87 µM
same,TGI,[20],> 100 µM
same,TGI,[21],> 100 µM
same,TGI,[22],> 100 µM
same,TGI,[23],46.1 µM
same,TGI,[24],> 100 µM
same,TGI,[25],58.7 µM
same,TGI,[26],> 100 µM
same,TGI,[27],> 100 µM
same,TGI,[28],51 µM
same,TGI,[29],47.8 µM
same,TGI,[30],> 100 µM
same,TGI,[31],> 100 µM
same,TGI,[32],55.3 µM
same,TGI,[33],> 100 µM
same,TGI,[34],> 100 µM
same,TGI,[35],> 100 µM
same,TGI,[36],73.8 µM
same,TGI,[37],93.2 µM
same,TGI,[38],46.2 µM
same,TGI,[39],45.3 µM
same,TGI,[40],42.7 µM
same,TGI,[41],80.6 µM
same,TGI,[42],> 100 µM
same,TGI,[43],92.3 µM
same,TGI,[44],51.6 µM
same,TGI,[45],> 100 µM
same,TGI,[46],65 µM
same,TGI,[47],> 100 µM
same,TGI,[48],71.2 µM
same,TGI,[49],> 100 µM
same,TGI,[50],39.9 µM
same,TGI,[52],> 100 µM
same,TGI,[53],81.3 µM
same,TGI,[54],> 100 µM
same,TGI,[55],59.6 µM
same,TGI,[56],> 100 µM
same,TGI,[57],> 100 µM
same,TGI,[58],> 100 µM
CCOC(=O)/C(C#N)=C/c1ccc2c(-c3c(OCC)ccc4cc(/C=C(\C#N)C(=O)OCC)ccc34)c(OCC)ccc2c1,TGI,[1],> 100 µM
same,TGI,[2],> 100 µM
same,TGI,[3],> 100 µM
same,TGI,[4],> 100 µM
same,TGI,[59],> 100 µM
same,TGI,[5],> 100 µM
same,TGI,[6],> 100 µM
same,TGI,[7],> 100 µM
same,TGI,[8],> 100 µM
same,TGI,[9],> 100 µM
same,TGI,[10],> 100 µM
same,TGI,[11],> 100 µM
same,TGI,[12],> 100 µM
same,TGI,[13],> 100 µM
same,TGI,[14],> 100 µM
same,TGI,[15],> 100 µM
same,TGI,[16],> 100 µM
same,TGI,[17],> 100 µM
same,TGI,[18],> 100 µM
same,TGI,[19],> 100 µM
same,TGI,[20],> 100 µM
same,TGI,[21],> 100 µM
same,TGI,[22],35.7 µM
same,TGI,[23],> 100 µM
same,TGI,[24],> 100 µM
same,TGI,[25],56.1 µM
same,TGI,[26],> 100 µM
same,TGI,[27],> 100 µM
same,TGI,[28],> 100 µM
same,TGI,[29],> 100 µM
same,TGI,[30],> 100 µM
same,TGI,[31],> 100 µM
same,TGI,[32],> 100 µM
same,TGI,[33],> 100 µM
same,TGI,[34],> 100 µM
same,TGI,[35],> 100 µM
same,TGI,[36],> 100 µM
same,TGI,[37],> 100 µM
same,TGI,[38],> 100 µM
same,TGI,[39],> 100 µM
same,TGI,[40],> 100 µM
same,TGI,[41],> 100 µM
same,TGI,[42],> 100 µM
same,TGI,[44],> 100 µM
same,TGI,[45],> 100 µM
same,TGI,[46],> 100 µM
same,TGI,[47],> 100 µM
same,TGI,[48],> 100 µM
same,TGI,[49],> 100 µM
same,TGI,[50],> 100 µM
same,TGI,[52],> 100 µM
same,TGI,[53],> 100 µM
same,TGI,[54],> 100 µM
same,TGI,[55],> 100 µM
same,TGI,[56],> 100 µM
same,TGI,[57],> 100 µM
same,TGI,[58],> 100 µM
